Patent publication US9539223B2, “Methods for treating bacterial infections” (Neoculi Pty Ltd., priority 2013, dated 2017)
Converted amounts (≈) assume the structure as drawn.

Legend:
Streptococcus pneumoniae = experiment: Minimum inhibitory concentration assay (CLSI), Str. pneumoniae isolates; format: cell-based
Method: Minimum inhibitory concentration tests were performed according to CLSI Standards (CLSI 2008). […] The solutions were then serially diluted across the row, leaving 2 columns for positive and negative controls. A bacterial suspension was prepared by adding fresh colonies obtained from an overnight culture on Sheep Blood Agar (SBA) to a 9.1 g/L saline solution. This suspension was adjusted to a concentration of between 4×10^8 and 5×10^8 CFU/mL. Concentration of the suspension was determined by measuring optical density (OD) using a spectrophotometer at a wavelength of 600 nm where the correct concentration was determined to have an optical density of between 1.00 and 1.20. One milliliter of this suspension was added to 9 mL of saline before being added to all wells, excluding the negative control wells, in 10 μL volumes giving a final concentration of between 4×10^5 and 5×10^5 CFU/mL in each well. The tests were then incubated for 24 hours at 37° C. and then assessed both visually and using OD readings from a microplate reader at a wavelength of 600 nm. These tests were performed in duplicate but repeated if discrepancies were observed.
The minimum inhibitory concentration (MIC) was determined to be the lowest concentration of antibiotic that prevented growth of bacteria both visually and using OD readings. […]

[1] = tested on: RNA synthesis in S. aureus ATCC 29213; experiment: RNA synthesis, [3H] uridine incorporation; format: cell-based, Staphylococcus aureus; details: 0.25 to 8-fold the MIC
Method: Cells were grown at 35° C. overnight on Trypticase Soy agar. A colony from the plate was used to inoculate 10 ml of Mueller Hinton broth II (MHBII), and the culture was grown to early exponential growth phase (OD600=0.2 to 0.3) while incubating in a shaker at 35° C. and 200 rpm.
When cells reached early exponential phase, 100 μl of culture was added to triplicate wells containing various concentrations of test compound or control antibiotics (5 μl) at 20× the final concentration in 100% DMSO. A 5% DMSO treated culture served as the “no drug” control for all experiments. Cells were added in MHBII at 105% to account for the volume of drug added to each reaction or in M9 minimal medium for protein synthesis reactions. Following 15 min incubation at room temperature, either [3H] thymidine (DNA synthesis), [3H] uridine (RNA synthesis) or [3H] leucine (protein synthesis) was added at 0.5-1.0 μCi per reaction, depending on the experiment. Reactions were allowed to proceed at room temperature for 15-30 min and then stopped by adding 12 μl of cold 5% trichloroacetic acid (TCA) or 5% TCA/2% casamino acids (protein synthesis only). […] After washing three times with 5 ml of cold 5% TCA, the filters were rinsed two times with 5 ml 100% ethanol, allowed to dry, and then counted using a Beckman LS3801 liquid scintillation counter.

MRSA isolates = experiment: MBC test (CLSI), MRSA isolates; format: cell-based, Staphylococcus aureus
Method: There was an obvious reduction in the number of bacteria with increasing concentration, but growth was present compared with no growth for S. aureus. […] Each MBC test was performed in duplicate.

N=C(N/N=C/c1ccc(Cl)cc1)N/N=C/c1ccc(Cl)cc1 [NCL812, 1,2-bis[(E)-(4-chlorophenyl)methylideneamino]guanidine]
MIC50 (Streptococcus pneumoniae): 4 µg/mL (≈ 12 µM)
MIC90 (Streptococcus pneumoniae): 4 µg/mL (≈ 12 µM)
inhibition of RNA synthesis [1]: very similar to the DNA synthesis study
MBC test: growth on Sheep Blood Agar (MRSA isolates; MRSA 1, 4 μg/ml): 0
MBC test: growth on Sheep Blood Agar (MRSA isolates; MRSA 1, 8 μg/ml): 0
MBC test: growth on Sheep Blood Agar (MRSA isolates; MRSA 1, 16 μg/ml): 0
MBC test: growth on Sheep Blood Agar (MRSA isolates; MRSA 1, 32 μg/ml): 0
MBC test: growth on Sheep Blood Agar (MRSA isolates; MRSA 3, 4 μg/ml): 0
MBC test: growth on Sheep Blood Agar (MRSA isolates; MRSA 3, 16 μg/ml): 0
MBC test: growth on Sheep Blood Agar (MRSA isolates; MRSA 3, 32 μg/ml): 0
MBC test: growth on Sheep Blood Agar (MRSA isolates; MRSA 4, 4 μg/ml): 0
MBC test: growth on Sheep Blood Agar (MRSA isolates; MRSA 4, 8 μg/ml): 0
MBC test: growth on Sheep Blood Agar (MRSA isolates; MRSA 4, 16 μg/ml): 0
MBC test: growth on Sheep Blood Agar (MRSA isolates; MRSA 4, 32 μg/ml): 0
MBC test: growth on Sheep Blood Agar (MRSA isolates; MRSA 5, 4 μg/ml): 0
MBC test: growth on Sheep Blood Agar (MRSA isolates; MRSA 5, 8 μg/ml): 0
MBC test: growth on Sheep Blood Agar (MRSA isolates; MRSA 5, 16 μg/ml): 0
MBC test: growth on Sheep Blood Agar (MRSA isolates; MRSA 5, 32 μg/ml): 0
MBC test: growth on Sheep Blood Agar (MRSA isolates; MRSA 6, 4 μg/ml): 0
MBC test: growth on Sheep Blood Agar (MRSA isolates; MRSA 6, 8 μg/ml): 0
MBC test: growth on Sheep Blood Agar (MRSA isolates; MRSA 6, 16 μg/ml): 0
MBC test: growth on Sheep Blood Agar (MRSA isolates; MRSA 6, 32 μg/ml): 0
MBC test: growth on Sheep Blood Agar (MRSA isolates; MRSA 7, 4 μg/ml): 0
MBC test: growth on Sheep Blood Agar (MRSA isolates; MRSA 7, 16 μg/ml): 0
MBC test: growth on Sheep Blood Agar (MRSA isolates; MRSA 7, 32 μg/ml): 0
MBC test: growth on Sheep Blood Agar (MRSA isolates; MRSA 8, 8 μg/ml): 0
MBC test: growth on Sheep Blood Agar (MRSA isolates; MRSA 8, 16 μg/ml): 0
MBC test: growth on Sheep Blood Agar (MRSA isolates; MRSA 8, 32 μg/ml): 0
MBC test: growth on Sheep Blood Agar (MRSA isolates; MRSA 9, 4 μg/ml): 0
MBC test: growth on Sheep Blood Agar (MRSA isolates; MRSA 9, 8 μg/ml): 0
MBC test: growth on Sheep Blood Agar (MRSA isolates; MRSA 9, 16 μg/ml): 0
MBC test: growth on Sheep Blood Agar (MRSA isolates; MRSA 9, 32 μg/ml): 0
MBC test: growth on Sheep Blood Agar (MRSA isolates; MRSA 10, 4 μg/ml): 0
MBC test: growth on Sheep Blood Agar (MRSA isolates; MRSA 10, 8 μg/ml): 0
MBC test: growth on Sheep Blood Agar (MRSA isolates; MRSA 10, 16 μg/ml): 0
MBC test: growth on Sheep Blood Agar (MRSA isolates; MRSA 10, 32 μg/ml): 0
MBC test: growth on Sheep Blood Agar (MRSA isolates; MRSA 11, 8 μg/ml): 0
MBC test: growth on Sheep Blood Agar (MRSA isolates; MRSA 11, 16 μg/ml): 0
MBC test: growth on Sheep Blood Agar (MRSA isolates; MRSA 11, 32 μg/ml): 0
MBC test: growth on Sheep Blood Agar (MRSA isolates; MRSA 12, 4 μg/ml): 0
MBC test: growth on Sheep Blood Agar (MRSA isolates; MRSA 12, 16 μg/ml): 0
MBC test: growth on Sheep Blood Agar (MRSA isolates; MRSA 12, 32 μg/ml): 0
MBC test: growth on Sheep Blood Agar (MRSA isolates; MRSA 13, 4 μg/ml): 0
MBC test: growth on Sheep Blood Agar (MRSA isolates; MRSA 13, 8 μg/ml): 0
MBC test: growth on Sheep Blood Agar (MRSA isolates; MRSA 13, 16 μg/ml): 0
MBC test: growth on Sheep Blood Agar (MRSA isolates; MRSA 13, 32 μg/ml): 0
MBC test: growth on Sheep Blood Agar (MRSA isolates; MRSA 14, 4 μg/ml): 0
MBC test: growth on Sheep Blood Agar (MRSA isolates; MRSA 14, 8 μg/ml): 0
MBC test: growth on Sheep Blood Agar (MRSA isolates; MRSA 14, 16 μg/ml): 0
MBC test: growth on Sheep Blood Agar (MRSA isolates; MRSA 14, 32 μg/ml): 0
MBC test: growth on Sheep Blood Agar (MRSA isolates; MRSA 516, 4 μg/ml): 0
MBC test: growth on Sheep Blood Agar (MRSA isolates; MRSA 516, 8 μg/ml): 0
MBC test: growth on Sheep Blood Agar (MRSA isolates; MRSA 516, 16 μg/ml): 0
MBC test: growth on Sheep Blood Agar (MRSA isolates; MRSA 516, 32 μg/ml): 0
MBC test: growth on Sheep Blood Agar (MRSA isolates; MRSA 570, 4 μg/ml): 0
MBC test: growth on Sheep Blood Agar (MRSA isolates; MRSA 570, 8 μg/ml): 0
MBC test: growth on Sheep Blood Agar (MRSA isolates; MRSA 570, 16 μg/ml): 0
MBC test: growth on Sheep Blood Agar (MRSA isolates; MRSA 570, 32 μg/ml): 0
MBC test: growth on Sheep Blood Agar (MRSA isolates; MRSA 580, 4 μg/ml): 0
MBC test: growth on Sheep Blood Agar (MRSA isolates; MRSA 580, 8 μg/ml): 0
MBC test: growth on Sheep Blood Agar (MRSA isolates; MRSA 580, 16 μg/ml): 0
MBC test: growth on Sheep Blood Agar (MRSA isolates; MRSA 580, 32 μg/ml): 0
MBC test: growth on Sheep Blood Agar (MRSA isolates; MRSA 606, 4 μg/ml): 0
MBC test: growth on Sheep Blood Agar (MRSA isolates; MRSA 606, 8 μg/ml): 0
MBC test: growth on Sheep Blood Agar (MRSA isolates; MRSA 606, 16 μg/ml): 0
MBC test: growth on Sheep Blood Agar (MRSA isolates; MRSA 606, 32 μg/ml): 0
MBC test: growth on Sheep Blood Agar (MRSA isolates; MRSA 610, 4 μg/ml): 0
MBC test: growth on Sheep Blood Agar (MRSA isolates; MRSA 610, 16 μg/ml): 0
MBC test: growth on Sheep Blood Agar (MRSA isolates; MRSA 610, 32 μg/ml): 0
